From PMC11858513, “Antibiofilm Activities of Tritrpticin Analogs Against Pathogenic Pseudomonas aeruginosa PA01 Strains” (Molecules, 2025)
Converted amounts (≈) assume the structure as drawn. Where two headings read alike, the source gives them in different places. Residues, ends and D or L forms follow the SMILES beside them.

Key:
S. aureus GFP [1] = experiment: MIC against planktonic cells, absorbance at 600 nm; assay type: cell-based, Staphylococcus aureus; conditions: Table 4; Sa GFP, 10% TSB and 0.1% glucose; absorbance 600 nm; mean of three biological replicates
Protocol: (§1) Figure 3 The MIC (A), MBIC (B) and MBEC (C) values for the tritrpticin analog peptides were assessed against Sa GFP. The MIC values were determined by measuring the absorbance of bacterial cells at 600 nm. The MBIC and MBEC values were determined by recording the fluorescence at 480 nm and 530 nm from the biofilms of GFP-expressing Sa. Three biological replicates were run for each test sample, and the mean was calculated for the recorded absorption or fluorescence values. In the graphs, the error bars represent the standard deviation (±SD).
(§2) The methods to determine the MIC, MBIC and MBEC have been described in detail in our previous publication. The green fluorescent protein (GFP)-producing P. aeruginosa and S. aureus strains that were used in this work were also described in the earlier publication. Fluorescence detection was used as the main method to estimate the number of cells entrapped in the biofilm matrix. The methodology used for evaluation of the antibiofilm properties against an original Pseudomonas PA01 strain by crystal violet dye staining and the use of the Calgary biofilm device has been described elsewhere. The regular PA01 strain was provided by Dr. J. Harrison, Calgary. All measurements were carried out on an Eppendorf AF2200 plate reader. Every 96-well plate included controls for bacterial cell growth without peptide treatment and media alone. All measurements were carried out in triplicate, and the values in the figures represent the average and the error bars are standard deviation.

S. aureus GFP [2] = assay type: cell-based, Staphylococcus aureus; conditions: Table 4; Sa GFP; lowest concentration of peptide with no bacterial growth seen on the spot agar plate
Description: as §2

P. aeruginosa PAO1 [3] = assay type: cell-based
Protocol: (§3) We note the close agreement with the MBIC and MBEC values determined by the fluorescence and CV methods, similar to what we found in our previous work for an S. aureus MRSA strain [23]. We also re-evaluated the MBEC values that are measured using the Calgary biofilm device (CBD), where biofilms form on pegs, rather than at the bottom of the 96-well plates. […] In particular, we find that the single Pro9Ala Tritrp-P9A-substituted version has better MIC, MBIC and MBEC activities than the parent peptide as well as the Tritrp-P59A analog with both prolines substituted to Ala.
(§4) Figure 4 The MIC (A), MBIC (B) and MBRC (C) values for the peptides were assessed against P. aeruginosa PAO1 in the presence of 1× BM2. The inhibition of planktonic cells, the inhibition of biofilm cells and the reduction in biofilm cells were determined for the peptides by recording of the planktonic cells at 600 nm and quantification of biofilms formed by Pa PAO1 using crystal violet at 595 nm, respectively. Three biological replicates were run for each test sample, and the mean was calculated for the recorded absorption values. Data points with error bars indicate the standard deviation (±SD).
(§5) Figure 6 The MIC (A), MBIC (B) and MBEC (C) values for the tritrpticin-Lys derivatives against P. aeruginosa PAO1 were assessed by the crystal violet (CV) assay for the measurement of inhibition of biofilm formation and eradication of biofilm cells, respectively. The biofilm cells were rinsed, stained with 0.1% crystal violet for 15 min and then rinsed again. The CV was released from biofilm cells by the addition of 95% ethanol and quantified by reading on a spectrometer at 595 nm. Three replicates were run for each sample, the values were averaged and the error bars represent the standard deviation (±SD).
as §2

P. aeruginosa PAO1 [4] = assay type: cell-based, Pseudomonas aeruginosa; conditions: Table 5; PAO1, 1x BM2; biofilms on pegs, cells plated and counted; three biological replicates
Protocol: as §3
Figure 5 The MBEC values for the peptides were assessed against P. aeruginosa PAO1 in the presence of 1× BM2 medium. The eradication of biofilm cells was determined for the peptides using the counting of biofilm cells formed by Pa PAO1. Three biological replicates were run for each test sample, and the mean was calculated for counted cell values. Data points with error bars indicate the standard deviation (±SD).
as §2

P. aeruginosa PAO1 GFP [5] = experiment: MBEC, biofilm eradication, GFP fluorescence method; assay type: cell-based, Pseudomonas aeruginosa; conditions: Table 2, BM2 medium, mean of three biological replicates
Protocol: as §1, with “Figure 1” for “Figure 3”, “against Pa PAO1” for “against Sa”, “GFP-expressing PAO1.” for “GFP-expressing Sa.”
(§6) Figure 2 The MIC (A), MBIC (B) and MBEC (C) values for the tritrpticin-Lys derivative peptides were assessed against Pa PAO1 GFP. The MIC values were determined by measuring the absorbance of bacterial cells at 600 nm. The MBIC and MBEC values were determined by recording the fluorescence at 480 nm and 530 nm from the biofilms of GFP-expressing PAO1. Three replicates were run for each sample, the values were averaged and the error bars represent the standard deviation (±SD).
as §2

P. aeruginosa PAO1 GFP [6] = experiment: MIC against planktonic cells, absorbance at 600 nm; assay type: cell-based, Pseudomonas aeruginosa; conditions: Table 2, BM2 medium, absorbance 600 nm, mean of three biological replicates
Protocol: as §1, with “Figure 1” for “Figure 3”, “against Pa PAO1” for “against Sa”, “GFP-expressing PAO1.” for “GFP-expressing Sa.”
as §6, §2

S. aureus GFP [7] = experiment: MBIC, GFP fluorescence method; assay type: cell-based, Staphylococcus aureus; conditions: Table 4, Sa GFP, 10% TSB and 0.1% glucose, mean of three biological replicates
Protocol: as §1, §2

S. aureus GFP [8] = experiment: MBEC, GFP fluorescence method; assay type: cell-based, Staphylococcus aureus; conditions: Table 4, Sa GFP, 10% TSB and 0.1% glucose, mean of three biological replicates
Protocol: as §1, §2

P. aeruginosa PAO1 GFP [9] = experiment: MBIC, prevention of biofilm formation, GFP fluorescence method; assay type: cell-based, Pseudomonas aeruginosa; conditions: Table 2, BM2 medium, mean of three biological replicates
Protocol: as §1, with “Figure 1” for “Figure 3”, “against Pa PAO1” for “against Sa”, “GFP-expressing PAO1.” for “GFP-expressing Sa.”
as §6, §2

P. aeruginosa PAO1 [10] = assay type: cell-based, Pseudomonas aeruginosa; conditions: Table 5; regular PAO1 (no GFP), 1x BM2; absorbance 600 nm; mean of three biological replicates
Protocol: as §4, §5, §2

[11] = Table 5, PAO1, 1x BM2, crystal violet at 595 nm, mean of three biological replicates
[12] = Table 5, minimum biofilm reduction concentration, PAO1, 1x BM2, crystal violet at 595 nm, mean of three biological replicates

Row | Compound | MIC at 600 nm LD50 (S. aureus GFP [1]) | MIC at 600 nm LD90 (S. aureus GFP [1]) | MBC Agar Plate (S. aureus GFP [2]) | MBIC (CV at 595 nm) LD50 (P. aeruginosa PAO1 [3]; [11]) | MBIC (CV at 595 nm) LD90 (P. aeruginosa PAO1 [3]; [11]) | MBRC (CV at 595 nm) LD50 (P. aeruginosa PAO1 [3]; [12]) | MBRC (CV at 595 nm) LD90 (P. aeruginosa PAO1 [3]; [12]) | MBEC from Calgary Biofilm Device (CBD) LD50 (P. aeruginosa PAO1 [4]) | MBEC from Calgary Biofilm Device (CBD) LD90 (P. aeruginosa PAO1 [4]) | MBEC at 488 and 530 nm LD50 (P. aeruginosa PAO1 GFP [5]) | MBEC at 488 and 530 nm LD90 (P. aeruginosa PAO1 GFP [5]) | MIC at 600 nm LD50 (P. aeruginosa PAO1 GFP [6]) | MIC at 600 nm LD90 (P. aeruginosa PAO1 GFP [6]) | MBIC at 488 and 530 nm LD50 (S. aureus GFP [7]) | MBIC at 488 and 530 nm LD90 (S. aureus GFP [7]) | MBEC at 488 and 530 nm LD50 (S. aureus GFP [8]) | MBEC at 488 and 530 nm LD90 (S. aureus GFP [8]) | MBIC at 488 and 530 nm LD50 (P. aeruginosa PAO1 GFP [9]) | MBIC at 488 and 530 nm LD90 (P. aeruginosa PAO1 GFP [9]) | MIC at 600 nm LD50 (P. aeruginosa PAO1 [10]) | other results
1 | CC[C@H](C)[C@H](N)C(=O)N[C@@H](CC(C)C)C(=O)N1CCC[C@H]1C(=O)N[C@@H](Cc1c[nH]c2ccccc12)C(=O)N[C@@H](CCCCN)C(=O)N[C@@H](Cc1c[nH]c2ccccc12)C(=O)N1CCC[C@H]1C(=O)N[C@@H](Cc1c[nH]c2ccccc12)C(=O)N[C@@H](Cc1c[nH]c2ccccc12)C(=O)N1CCC[C@H]1C(=O)N[C@@H](Cc1c[nH]c2ccccc12)C(=O)N[C@@H](CCCNC(=N)N)C(=O)N[C@@H](CCCNC(=N)N)C(N)=O [Indolicidin, reference compound] | 4 µM (≈ 7.63 µg/mL) | 8 µM (≈ 15.3 µg/mL) | 8 µM (≈ 15.3 µg/mL) | 32 µmol/L | 32 µmol/L | 64 µmol/L | 64 µmol/L | 128 µmol/L | 128 µmol/L | 32 µmol/L | >128 µmol/L | 8 µM (≈ 15.3 µg/mL) | 32 µM (≈ 61 µg/mL) | 4 µmol/L | 8 µmol/L | 2 µmol/L | 8 µmol/L | 8 µmol/L | 32 µmol/L |  | 
2 | CC(C)[C@H](NC(=O)[C@@H]1CCCN1C(=O)[C@@H](N)Cc1ccccc1)C(=O)N[C@H](C(=O)N[C@@H](Cc1c[nH]c2ccccc12)C(=O)N[C@@H](CCCNC(=N)N)C(=O)N[C@@H](Cc1c[nH]c2ccccc12)C(=O)N[C@@H](Cc1c[nH]c2ccccc12)C(=O)N[C@@H](CCCNC(=N)N)C(=O)N[C@@H](Cc1c[nH]c2ccccc12)C(=O)N[C@@H](Cc1c[nH]c2ccccc12)C(=O)N[C@@H](CCCNC(=N)N)C(=O)NCC(N)=O)[C@@H](C)O [PuroA-Arg, reference compound] (H-FPVTWRWWRWWRG-NH2) | 4 µM (≈ 7.67 µg/mL) | 4 µM (≈ 7.67 µg/mL) | 8 µM (≈ 15.3 µg/mL) | 16 µmol/L | 16 µmol/L | 32 µmol/L | 32 µmol/L | 16 µmol/L | 64 µmol/L | 32 µmol/L | 128 µmol/L | 8 µM (≈ 15.3 µg/mL) | 16 µM (≈ 30.7 µg/mL) | 4 µmol/L | 4 µmol/L | 8 µmol/L | 16 µmol/L | 8 µmol/L | 8 µmol/L | 8 µM (≈ 15.3 µg/mL) | MIC at 600 nm LD90 (P. aeruginosa PAO1 [10]): 16 µM (≈ 30.7 µg/mL)
3 | CC(C)[C@H](NC(=O)[C@@H]1CCCN1C(=O)[C@@H](N)Cc1ccccc1)C(=O)N[C@H](C(=O)N[C@@H](Cc1c[nH]c2ccccc12)C(=O)N[C@@H](CCCCN)C(=O)N[C@@H](Cc1c[nH]c2ccccc12)C(=O)N[C@@H](Cc1c[nH]c2ccccc12)C(=O)N[C@@H](CCCCN)C(=O)N[C@@H](Cc1c[nH]c2ccccc12)C(=O)N[C@@H](Cc1c[nH]c2ccccc12)C(=O)N[C@@H](CCCCN)C(=O)NCC(N)=O)[C@@H](C)O [PuroA-Lys, reference compound] (H-FPVTWKWWKWWKG-NH2) | 2 µM (≈ 3.67 µg/mL) | 4 µM (≈ 7.34 µg/mL) | 8 µM (≈ 14.7 µg/mL) | 8 µmol/L | 16 µmol/L | 32 µmol/L | 32 µmol/L | 32 µmol/L | 64 µmol/L | 64 µmol/L | 64 µmol/L | 4 µM (≈ 7.34 µg/mL) | 8 µM (≈ 14.7 µg/mL) | 2 µmol/L | 4 µmol/L | 8 µmol/L | 8 µmol/L | 4 µmol/L | 8 µmol/L | 8 µM (≈ 14.7 µg/mL) | MIC at 600 nm LD90 (P. aeruginosa PAO1 [10]): 16 µM (≈ 29.3 µg/mL)
4 | CC(C)C[C@H](NC(=O)[C@H](Cc1ccccc1)NC(=O)[C@@H]1CCCN1C(=O)[C@H](Cc1c[nH]c2ccccc12)NC(=O)[C@H](Cc1c[nH]c2ccccc12)NC(=O)[C@H](Cc1c[nH]c2ccccc12)NC(=O)[C@@H]1CCCN1C(=O)[C@H](Cc1ccccc1)NC(=O)[C@H](CCCNC(=N)N)NC(=O)[C@H](CCCNC(=N)N)NC(=O)[C@@H](N)C(C)C)C(=O)N[C@@H](CCCNC(=N)N)C(=O)N[C@@H](CCCNC(=N)N)C(N)=O [Tritrp-Arg] | 0.5 µM (≈ 0.951 µg/mL) | 2 µM (≈ 3.8 µg/mL) | 2 µM (≈ 3.8 µg/mL) |  | 8 µmol/L |  | 32 µmol/L | 16 µmol/L | 32 µmol/L | 8 µmol/L | 16 µmol/L | 4 µM (≈ 7.61 µg/mL) | 8 µM (≈ 15.2 µg/mL) | 1 µmol/L | 2 µmol/L | 1 µmol/L | 2 µmol/L | 2 µmol/L | 8 µmol/L | 4 µM (≈ 7.61 µg/mL) | MIC at 600 nm LD90 (P. aeruginosa PAO1 [10]): 8 µM (≈ 15.2 µg/mL); MBIC (CV at 595 nm) LD50 (P. aeruginosa PAO1 [3]; PAO1): 4 µmol/L; MBRC (CV at 595 nm) LD50 (P. aeruginosa PAO1 [3]; PAO1): 32 µmol/L
